Patent US7160859B2, “Mst1 modulation of apoptosis in cardiac tissue and modulators of Mst1 for treatment and prevention of cardiac disease” (University of Medicine & Dentistry of New Jersey, priority 2002, dated 2007)

Columns and labels:
cardiac myocytes [1] = experiment: Morphology of cardiac myocytes (cell shrinkage, cell death); format: cell-based, rat; details: within 6 h
cardiac myocytes [2] = experiment: Cell Death Detection ELISA: cytoplasmic accumulation of mono- and oligo-nucleosomes (DNA fragmentation); format: cell-based, rat
Description: Primary cultures of ventricular cardiac myocytes were prepared from 1-day-old Crl: (WI) BR-Wistar rats (Charles River Laboratories, Wilmington, Mass.) as described previously (34). A cardiac myocyte rich fraction was obtained by centrifugation through the discontinuous Percoll gradient as described (34). Cells were cultured in the cardiac myocyte culture medium containing Dulbecco's modified Eagle medium (DMEM)/F12 supplemented with 5% horse serum, 4 μg/mL transferrin, 0.7 ng/mL sodium selenite (GIBCO), 2 g/L bovine serum albumin (fraction V), 3 mmol/L pyruvic acid, 15 mmol/L HEPES, 100 μmol/L ascorbic acid, 100 μg/mL ampicillin, 5 μg/mL linoleic acid and 100 μmol/L 5-bromo-2′-deoxyuridine (Sigma). We obtained myocyte cultures in which more than 95% were myocytes, as assessed by immunofluorescence staining with a monoclonal antibody against sarcomeric myosin (MF20). Culture media were changed to serum-free at 24–36 h and then subjected to adenovirus transduction. Myocytes were cultured in the serum-free condition for 48 h before experiments.
Histone-associated DNA fragments were quantified by the Cell Death Detection ELISA (Roche, Indianapolis, Ind.) according to the manufacturer's instruction as described (35) with minor modification for sample preparation. In brief, myocytes were rinsed with PBS three times in order to remove nucleosomes leaked out from necrotic cells and then incubated with the lysis buffer for 30 min. The supernatant containing mono- and oligonucleosomes from the cytoplasmic fraction of apoptotic cells was used for further analyses. DNA fragmentation of the tissue samples was determined by DNA laddering assays. Genomic DNA containing small molecular weight fragments was isolated and analyzed by agarose gel electrophoresis as described (36).

caspase-3 = experiment: Immunoblot with anti-cleaved caspase-3 antibody; format: cell-based, rat; details: Doxo, 6 and 24 hour time points
Description: For analyses of Mst1, cells were lysed in a Lysis Buffer A, containing 25 mmol/L NaCl, 25 mmol/L Tris (pH 7.4), 1 mmol/L Na3VO4, 10 mmol/L NaF, 10 mmol sodium pyrophosphate, 0.5 mmol/L EGTA, 0.5 mmol/L AEBSF, 0.5 μ/mL leupeptin, 0.5 μ/mL aprotinin. Samples containing the equal amount of protein were subjected to SDS-PAGE. Proteins were transferred onto polyvinylidene fluoride microporous membranes (Bio Rad, Hercules, Calif.) and probed with primary antibodies. We used anti-Mst1 monoclonal antibody (Transduction Laboratory, Lexington, Ky.) for detection of the carboxyl terminus of Mst1. Affinity purified rabbit polyclonal antibody was raised against animo-terminal ETVQLRNPPRRQLKC (pAb-15) (SEQ ID NO:4) (BioSource International, Camarillo, Calif.) for detection of the amino-terminus of Mst1. Blots were then probed by horseradish peroxidase-conjugated anti-mouse IgG or anti-rabbit IgG (Cell Signaling Technolog Inc., Beverly, Mass.). Antigen-antibody complexes were visualized by the enhanced chemiluminescence system (ECL, Amersham/Pharmacia, Piscataway, N.J.). Polyclonal antibodies raised against cleaved caspase-3 (Cell Signaling Technology Inc.) were used to determine activation of caspase-3, as described (35).

caspase-9 = experiment: Western blot of caspase-9 cleavage; format: cell-based, rat; details: Doxo, 6 and 24 hour time points
[3] = tested on: Neonatal rat cardiac myocytes; experiment: Phenylephrine-induced hypertrophy of cultured cardiac myocytes; format: cell-based; details: PE 10 μM 48 h, LacZ virus-transduced myocytes
Description: We have previously and above shown that mammalian sterile-20 like kinase 1 (Mst1) plays an important role in mediating cardiac myocyte apoptosis in response to ischemia/reperfusion and doxorubicin treatment. Cardiac specific overexpression of Mst1 in transgenic mice (Tg-Mst1) increases cardiac myocyte apoptosis in the heart and the mice develop dilated cardiomyopathy (DCM) and congestive heart failure within 3 months of age. […] Lack of compensatory cardiac myocyte hypertrophy may adversely affect LV function of Tg-Mst1 because operation of the Frank Starling mechanism could be less efficient at the individual cell level. This study was undertaken in order to elucidate if transient expression of Mst1 has a direct anti-hypertrophic effects in cultured cardiac myocytes in vitro. Neonatal rat cardiac myocytes were transduced with adenoviral vectors (10 MOI) in serum-free conditions for 48 h and then treated with phenylephrine (PE, 10 μM) for 48 h. Phenylephrine stimulates hypertrophy of cardiac myocytes in normal animals. Treatment of LacZ virus-transduced myocytes with PE caused a 2.4 fold increase in the cell size and a 1.7 fold increase in protein/DNA content. […] In summary, Mst1 has a direct anti-hypertrophic effect upon PE-treated cultured cardiac myocytes, possibly affecting other signaling mechanisms, including ERKs.

Mst1 = experiment: In gel myelin basic protein (MBP) kinase assay of cardiac myocyte lysates; format: cell-based, rat; details: in the presence of DEVD-CHO, 100 μM
Description: FIGS. 1A, 1B, 1C, 1D and 1E depict Mst1 activity assessed on treatment of cardiac myocytes with chelerythrine (Chele) or calyculin A. (A) Cardiac myocytes were treated with indicated concentrations of chelerythrine for 1 h. Cell lysates were subjected to in-gel myelin basic protein (MBP) kinase assay as well as immunoblotting with anti-cleaved caspase-3 antibody. Results are representative of more than five experiments. (B) Cardiac myocytes were treated with chelerythrine (Chele). In the right panel, myocytes were transduced with either control virus or adenovirus harboring XIAP 48 hours before Chele application. Cell lysates were subjected with immune complex in-gel MBP kinase assays, using anti-Mst1 polyclonal antibody (pAb-15). The activity of cleaved Mst1 is shown. (C) Cardiac myocytes were treated with Chele for the indicated durations. […]
Primary cultures of ventricular cardiac myocytes were prepared from 1-day-old Crl: (WI) BR-Wistar rats (Charles River Laboratories, Wilmington, Mass.) as described previously (34). […] We obtained myocyte cultures in which more than 95% were myocytes, as assessed by immunofluorescence staining with a monoclonal antibody against sarcomeric myosin (MF20). […]

## COc1cccc2c1C(=O)c1c(O)c3c(c(O)c1C2=O)C[C@@](O)(C(=O)CO)C[C@@H]3O[C@H]1C[C@H](N)[C@H](O)[C@H](C)O1 [Dox, Doxorubicin]
Cardiac myocytes [1]
  concentrations that dose-dependently induced cell shrinkage: 0.1 to 3 µM
Cardiac myocytes [2]; 6 h treatment with 0.5 μM Dox, control virus
  OD405 value (DNA fragmentation ELISA): 0.69
caspase-3
  activation (cleavage) of caspase-3: time dependent manner
caspase-9
  activation (cleavage) of caspase-9: time dependent manner

## CNC[C@H](O)c1cccc(O)c1 [PE, phenylephrine]
[3]
  increase in protein/DNA content: 1.7 fold
  increase in the cell size: 2.4 fold

## COC[C@@H]([C@H](O)[C@H](O)C(=O)NCC[C@H](C)c1nc(/C=C/C[C@@H]2O[C@]3(C[C@@H](O)[C@@H]2C)O[C@H]([C@H](C[C@H](O)[C@H](C)[C@H](O)[C@H](C)/C=C(C)/C(C)=C/C=C/C(C)=C\C#N)OC)[C@H](OP(=O)(O)O)C3(C)C)co1)N(C)C [calyculin A]
Cardiac myocytes [2]; vs untreated, n=4, p<0.05
  increase in cytoplasmic accumulation of oligo- and mono-nucleosomes: 4.3±1.4 fold
Cardiac myocytes [2]; with control virus
  DNA fragmentation by calyculin A: 5.6 fold

## DEVD-CHO
Cardiac myocytes [2]; in the presence of DEVD-CHO, 100 μM
  increases in DNA fragmentation by wild type Mst1: inhibited
Mst1
  increased activities and cleavage of Mst1 by overexpression of Mst1: attenuated
